# Values of other authors, collected in patent publication US6979677B1, “Inhibition of vascular smooth muscle cell proliferation” (priority 1994, dated 2005).
# Legend:
# cerebral glioma = settings: rats with HSV-tk-expressing murine fibroblasts, given GCV
# lymphomas = settings: of 12 mice treated with GCV
# [1] = system: transplantable murine adenocarcinoma; settings: HSV-tk transfected adenocarcinoma treated with GCV
# [2] = system: nondividing rabbit arterial cells
structure (smiles),measurement,setting,value
"Nc1nc(O)c2ncn(COC(CO)CO)c2n1 [GCV, ganciclovir]","glioma regression, microscopically and macroscopically",cerebral glioma,regressed completely
same,number of mice with complete tumor regression,lymphomas,11
same,tumor response in vivo,[1],regression
same,expression of HSV-tk-β-galactosidase construct under GCV treatment,[2],unaffected
